According to US4346087A, “Antibacterial surface active agent containing azaalkenelactam” (priority 1979, dated 1982):
Converted amounts (≈) assume the structure as drawn. Like-named read-outs stand apart in the source and are kept apart here.

Experiments:
Assay type in all cases: cell-based
[1] = tested on: Staphylococcus aureus FDA 209P; assay: MIC against Staphylococcus aureus FDA 209P
Text: (§1) Below are described the antibacterial activities of the compounds in the compositions according to this invention.
(§2) The testing method complied with the standard method of Japan Sociaty of Chemotherapy.

Escherichia coli NIHJ = assay: MIC against Escherichia coli NIHJ
Text: as §1, §2

[2] = tested on: Desulfovibrio desulfuricans IFO 13699; assay: MIC against Desulfovibrio desulfuricans
Text: as §1, §2

[3] = Staphylococcus aureus, FDA209P, 24 h
[4] = Desulfovibrio desulfuricans, IFO13699, 24 h
[5] = Table 2, derivatives having a carboxylate radical, heart infusion agar, 37° C., 24 hours
[6] = Escherichia coli, Table 1, azaalkenelactams, heart infusion agar, 37° C., 24 hours, read-out: MIC
[7] = Escherichia coli, Table 2, derivatives having a carboxylate radical, heart infusion agar, 37° C., 24 hours, read-out: MIC

CCCCCCCCCCCCCCNCCN1CC[N+](CC(=O)[O-])=CC(C)C1=O (stereo not drawn) [4-tetradecylaminoethyl-6-methyl-1-azonia-4-azacyclohept-7-en-5-one-1-acetate]
MIC [1, 3]: 6.25 µg/mL (≈ 14.8 µM) | MIC (Escherichia coli NIHJ; Escherichia coli, 24 h): 100 µg/mL (≈ 236 µM) | MIC [2, 4]: 6.25 µg/mL (≈ 14.8 µM)

CCCCCCCCCCCCOCCNCCN1CCN=C(C)CC1=O [Example 6, 4-dodecoxyethylaminoethyl-7-methyl-3,6-dihydro-2H-1,4-diazepin-5-one]
MIC [1, 3]: 12.5 µg/mL (≈ 32.8 µM) | MIC (Escherichia coli NIHJ; Escherichia coli, 24 h): 50 µg/mL (≈ 131 µM) | MIC [2, 4]: 25 µg/mL (≈ 65.5 µM)

CC1=NCCN(CC(C)OCC(C)OCC(C)OCc2ccc(C)cc2)C(=O)C1 (stereo not drawn) [Example 39, 4-methylbenzylpoly(2moles)oxypropyleneoxypropyl-7-methyl-3,6-dihydro-2H-1,4-diazepin-5-one]
MIC [1, 3]: 25 µg/mL (≈ 61.8 µM) | MIC (Escherichia coli NIHJ; Escherichia coli, 24 h): 200 µg/mL (≈ 494 µM) | MIC [2, 4]: 50 µg/mL (≈ 124 µM)

4-isostearamidoethyl-7-methyl-1-azonia-4-azacyclohept-7-en-5-one-1-acetate
MIC [1]: 50 µg/mL | MIC (Escherichia coli NIHJ; [5]): 3200 µg/mL | MIC [2]: 25 µg/mL

CCCCCCCCC=CCCCCCCCCN1CCCN=C(C)CC1=O [Example 4, 1-(9-octadecenyl)-4-methyl-3,6,7,8-tetrahydro-1,5-diazocin-2-one]
MIC [1, 3]: 25 µg/mL (≈ 64 µM) | MIC (Escherichia coli NIHJ; [6]): 800 µg/mL (≈ 2050 µM) | MIC [2, 4]: 12.5 µg/mL (≈ 32 µM)

CCCCCCCC(=O)NCCN1CC[N+](C(C)C(=O)[O-])=CCCC1=O (stereo not drawn) [4-octamidoethyl-4-aza-1-azoniacyclooct-8-en-5-one-1-propionate]
MIC [1, 3]: 400 µg/mL (≈ 1090 µM) | MIC (Escherichia coli NIHJ; Escherichia coli, 24 h): 200 µg/mL (≈ 544 µM) | MIC [2, 4]: 50 µg/mL (≈ 136 µM)

CCCCCCCCCCCCCCCCCCCCCC(=O)OCCN1CC[N+](CC(=O)[O-])=CCCC1=O [4-behenoyloxyethyl-4-aza-1-azoniacyclooct-8-en-5-one-1-acetate]
MIC [1, 3]: 100 µg/mL (≈ 182 µM) | MIC (Escherichia coli NIHJ; Escherichia coli, 24 h): 200 µg/mL (≈ 363 µM) | MIC [2, 4]: 12.5 µg/mL (≈ 22.7 µM)

CCCCCC[C@@H](O)C/C=C\CCCCCCCC(=O)NCCN1CC[N+](CC(=O)[O-])=CC(C)(C)C1=O [4-ricinolamidoethyl-6,6-dimethyl-1-azonia-4-azacyclohept-7-en-5-one-1-acetate]
MIC [1, 3]: 400 µg/mL (≈ 767 µM) | MIC (Escherichia coli NIHJ; [7]): 1600 µg/mL (≈ 3070 µM) | MIC [2, 4]: 50 µg/mL (≈ 95.8 µM)

CCCCCCCCc1ccc(OCCOC(C)COC(C)CN2CC[N+](CC(=O)[O-])=C(C)CC2=O)cc1 (stereo not drawn)
MIC [1, 3]: 50 µg/mL (≈ 93.9 µM) | MIC (Escherichia coli NIHJ; [7]): 800 µg/mL (≈ 1500 µM) | MIC [2, 4]: 50 µg/mL (≈ 93.9 µM)

CCCCCCCCCCCCC(O)CNCCN1CCN=C(C)CC1=O (stereo not drawn) [Example 28, 4-(2-hydroxytetradecyl)aminoethyl-7-methyl-3,6-dihydro-2H-1,4-diazepin-5-one]
MIC [1, 3]: 25 µg/mL (≈ 65.5 µM) | MIC (Escherichia coli NIHJ; Escherichia coli, 24 h): 25 µg/mL (≈ 65.5 µM) | MIC ([2]; Desulfovibrio desulfuricans, IFO13699, Table 1, azaalkenelactams, heart infusion agar, 37° C., 24 hours, read-out: MIC): 12.5 µg/mL (≈ 32.8 µM)

CCCCCCCC/C=C\CCCCCCCC(=O)OCCN1CC[N+](CC(=O)[O-])=C(C)CC1=O [4-oleoyloxyethyl-7-methyl-1-azonia-4-azacyclohept-7-en-5-one-1-acetate]
MIC [1, 3]: 200 µg/mL (≈ 406 µM) | MIC (Escherichia coli NIHJ; [7]): 3200 µg/mL (≈ 6490 µM) | MIC [2, 4]: 25 µg/mL (≈ 50.7 µM)

CCCCCCCCCCCCCCNCCN1CC[N+](CC(=O)[O-])=CCCC1=O [4-tetradecylaminoethyl-4-aza-1-azoniacyclooct-8-en-5-one-1-acetate]
MIC ([1]; Staphylococcus aureus, FDA209P, Table 2, derivatives having a carboxylate radical, heart infusion agar, 37° C., 24 hours, read-out: MIC): 3.12 µg/mL (≈ 7.36 µM) | MIC (Escherichia coli NIHJ; Escherichia coli, 24 h): 100 µg/mL (≈ 236 µM) | MIC [2, 4]: 6.25 µg/mL (≈ 14.8 µM)

CCCCCCCCOCCCN1CC[N+](CC(=O)[O-])=CC(C)(C)C1=O [4-oxtoxypropyl-6,6-dimethyl-1-azonia-4-azacyclohept-7-en-5-one-1-acetate]
MIC [1, 3]: 200 µg/mL (≈ 543 µM) | MIC (Escherichia coli NIHJ; [7]): 800 µg/mL (≈ 2170 µM) | MIC [2, 4]: 50 µg/mL (≈ 136 µM)

CCCCCCCCCCCCNC(=O)CCC [Laurylbutylamide, reference compound]
MIC ([1]; Staphylococcus aureus, FDA209P, Table 1, azaalkenelactams, heart infusion agar, 37° C., 24 hours, read-out: MIC): ≥ 10000 µg/mL | MIC (Escherichia coli NIHJ; [6]): ≥ 10000 µg/mL | MIC [2, 4]: 400 µg/mL (≈ 1570 µM)

CCCCCCCCCCCCCCCCCCNCCCN1CCCN=C(C)CC1=O [Example 37, 1-octadecylaminopropyl-4-methyl-3,6,7,8-tetrahydro-1,5-diazocin-2-one]
MIC [1]: 6.25 µg/mL (≈ 13.9 µM) | MIC (Escherichia coli NIHJ): 25 µg/mL (≈ 55.6 µM) | MIC [2]: 6.25 µg/mL (≈ 13.9 µM)

CCCCCCCCc1ccc(OCCOC(C)COC(C)CN2CCN=C(C)CC2=O)cc1 (stereo not drawn) [Example 19]
MIC [1, 3]: 50 µg/mL (≈ 105 µM) | MIC (Escherichia coli NIHJ; Escherichia coli, 24 h): 400 µg/mL (≈ 843 µM) | MIC [2, 4]: 25 µg/mL (≈ 52.7 µM)

CCCCCCCCCCCCNCCCN1CCC[N+](CC(=O)[O-])=C(C)CC1=O [1-dodecylaminopropyl-4-methyl-1-aza-5-azoniacyclooct-4-en-2-one-5-acetate]
MIC [1, 3]: 12.5 µg/mL (≈ 29.5 µM) | MIC (Escherichia coli NIHJ; Escherichia coli, 24 h): 100 µg/mL (≈ 236 µM) | MIC [2, 4]: 50 µg/mL (≈ 118 µM)

CCCCCCCCCc1ccc(OCC(O)CNCCNCCNCCN2CC[N+](CC(=O)[O-])=CC(C)C2=O)cc1 (stereo not drawn) [4-nonylphenoxy(2-hydroxy)propylaminoethylaminoethylaminoethyl-6-methyl-1-azonia-4-azacyclohept-7-en-5-one-1-acetate]
MIC [1, 3]: 200 µg/mL (≈ 339 µM) | MIC (Escherichia coli NIHJ; Escherichia coli, 24 h): 400 µg/mL (≈ 678 µM) | MIC [2, 4]: 50 µg/mL (≈ 84.8 µM)

1-(2-hydroxy)dodecyl-3-methyl-1-aza-5-azoniacyclooct-4-en-2-one-5-acetate
MIC [1]: 100 µg/mL | MIC (Escherichia coli NIHJ; [5]): 1600 µg/mL | MIC [2]: 50 µg/mL
